#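 Tested at 5 concentrations; 48 h exposure; 96-well plates; endpoints linearly interpolated, else capped at highest concentration. Here, GI50 denotes the concentration required for 50% inhibition of growth. At the TGI there is no net growth.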
# Key:
# Assay in all cases: NCI-60 cell line screen, 48 h
# A549 NSCLC = tested on: A549 NSCLC
# CCRF-CEM leukemia = tested on: CCRF-CEM leukemia
# IGROV1 ovarian = tested on: IGROV1 ovarian
# MDA-MB-231 breast = tested on: MDA-MB-231 breast
# NCI-H460 lung = tested on: NCI-H460 lung
# NCI-H522 lung = tested on: NCI-H522 lung
# PC-3 prostate = tested on: PC-3 prostate
# SK-MEL-28 melanoma = tested on: SK-MEL-28 melanoma
# TK-10 renal = tested on: TK-10 renal
# UO-31 renal = tested on: UO-31 renal
SMILES,GI50 (A549 NSCLC),TGI (A549 NSCLC),GI50 (CCRF-CEM leukemia),TGI (CCRF-CEM leukemia),GI50 (IGROV1 ovarian),TGI (IGROV1 ovarian),GI50 (MDA-MB-231 breast),TGI (MDA-MB-231 breast),GI50 (NCI-H460 lung),TGI (NCI-H460 lung),GI50 (NCI-H522 lung),TGI (NCI-H522 lung),GI50 (PC-3 prostate),TGI (PC-3 prostate),GI50 (SK-MEL-28 melanoma),TGI (SK-MEL-28 melanoma),GI50 (TK-10 renal),TGI (TK-10 renal),GI50 (UO-31 renal),TGI (UO-31 renal)
CN(C)CCNc1c2c(c(NCCN(C)C)c3c(CO)c[nH]c13)C(=O)c1ccccc1C2=O,3.41 µM,> 37.6 µM,3.07 µM,> 32.1 µM,2.49 µM,> 40.7 µM,2.29 µM,10.7 µM,1.92 µM,9.12 µM,4.6 µM,24.1 µM,2.6 µM,26.8 µM,5.01 µM,10.6 µM,2.53 µM,7.55 µM,3.31 µM,23.2 µM
CC(=O)O[C@H](C[C@H](C(C)C)N(C)C(=O)[C@@H](NC(=O)[C@H]1CCCCN1C)C(C)(C)C)c1nc(C(=O)N[C@@H](Cc2ccccc2)C[C@H](C)C(=O)O)cs1,< 0.0025 µM,> 25 µM,< 0.0025 µM,> 25 µM,0.00294 µM,> 25 µM,< 0.0025 µM,,< 0.0025 µM,> 25 µM,< 0.0025 µM,0.00847 µM,< 0.0025 µM,> 25 µM,1.05 µM,> 25 µM,0.00962 µM,> 25 µM,0.0192 µM,> 25 µM
FC(F)(F)c1cc(NC2=NCCN=C(Nc3cc(C(F)(F)F)cc(C(F)(F)F)c3)SS2)cc(C(F)(F)F)c1,3.68 µM,17.4 µM,4.28 µM,27 µM,6.04 µM,26.3 µM,3.59 µM,15 µM,3.7 µM,14.2 µM,2.84 µM,10.6 µM,3 µM,12.1 µM,6.07 µM,19.4 µM,5.25 µM,19.8 µM,2.66 µM,11.9 µM
Cc1cc(S(=O)(=O)Nc2nc3cc(-c4ccsc4)sc3c(=O)n2N)c(S)cc1Cl,47.4 µM,> 100 µM,64.7 µM,> 100 µM,> 100 µM,> 100 µM,15.7 µM,> 100 µM,31.4 µM,> 100 µM,> 100 µM,> 100 µM,47.6 µM,> 100 µM,,,> 100 µM,> 100 µM,> 100 µM,> 100 µM
N#CC1CCc2c(c(-c3cn[nH]c3C(F)(F)F)nc3c(F)cc4[nH]ncc4c23)C1 (configuration not stated),21.2 µM,> 100 µM,4.06 µM,> 100 µM,2.46 µM,8.79 µM,4.96 µM,38.1 µM,11.8 µM,38.8 µM,2.31 µM,8.61 µM,9.19 µM,> 100 µM,4.43 µM,30.4 µM,6.28 µM,57.9 µM,9.64 µM,36.6 µM
C(#Cc1ccccc1C#Cc1ccccn1)c1ccccn1,20.5 µM,44.3 µM,13.8 µM,38.6 µM,,,16.6 µM,36.6 µM,23.1 µM,58.8 µM,16.3 µM,36.3 µM,13.5 µM,30.2 µM,27.4 µM,84 µM,6.54 µM,22.3 µM,16.4 µM,35.3 µM
CC(=O)Nc1cc2cc(NS(=O)(=O)c3cc(C(F)(F)F)cc(C(F)(F)F)c3)ccc2oc1=O,,> 100 µM,,> 100 µM,,> 100 µM,,> 100 µM,,> 100 µM,,> 100 µM,,> 100 µM,,> 100 µM,,> 100 µM,,> 100 µM
C=C(C)[C@@H]1CC[C@]2(C)[C@H](CC=C3[C@@H]4[C@H](C)[C@@H](C)CC[C@]4(CO)CC[C@]32C)[C@@]1(C)CCCN,1.59 µM,5.11 µM,1.31 µM,5.26 µM,0.885 µM,1.67 µM,0.957 µM,1.71 µM,0.914 µM,1.71 µM,1.04 µM,2.17 µM,1.65 µM,7.48 µM,0.952 µM,1.67 µM,2.21 µM,9.75 µM,0.823 µM,2.24 µM
Cc1nn2c(/C=C3\C(=O)Nc4ccccc43)c(C)nc2s1,32.7 µM,> 100 µM,30.1 µM,> 100 µM,30.6 µM,> 100 µM,> 100 µM,> 100 µM,13.3 µM,> 100 µM,18.5 µM,> 100 µM,29.5 µM,> 100 µM,> 100 µM,> 100 µM,88.7 µM,> 100 µM,70 µM,> 100 µM
NC(=S)N/N=C\c1nccc2c(C(F)(F)C(F)(F)C(F)(F)F)cccc12,0.0978 µM,1.1 µM,0.0427 µM,> 100 µM,0.223 µM,1.93 µM,0.0561 µM,3 µM,0.0619 µM,1.21 µM,0.211 µM,0.756 µM,0.0661 µM,> 22.5 µM,0.25 µM,3.26 µM,0.078 µM,2.3 µM,0.09 µM,0.892 µM
O=C(O)c1cc2c(c3ccsc13)-c1ccccc1CC2,36.1 µM,> 100 µM,37.6 µM,> 100 µM,33.9 µM,> 100 µM,27.6 µM,> 100 µM,33.2 µM,> 100 µM,29 µM,82.1 µM,40.9 µM,> 100 µM,85.5 µM,> 100 µM,30.3 µM,98.9 µM,29.3 µM,79.5 µM
CCCNc1cccc(-n2ncc3c(N/N=C/c4ccncc4)ncnc32)c1,> 7.61 µM,> 25 µM,> 25 µM,> 25 µM,,,> 25 µM,> 25 µM,2.65 µM,> 25 µM,1.44 µM,> 25 µM,> 25 µM,> 25 µM,> 10 µM,> 25 µM,2.37 µM,> 25 µM,,
C=C1C(=O)O[C@H]2[C@H]1CC/C(COC(=O)/C=C/c1c[nH]c3ccccc13)=C\CC[C@@]1(C)O[C@@H]21,1.27 µM,2.71 µM,0.0733 µM,0.854 µM,0.225 µM,0.484 µM,0.177 µM,0.374 µM,1.01 µM,2.66 µM,0.186 µM,0.371 µM,0.329 µM,1.52 µM,0.332 µM,1.3 µM,0.279 µM,0.709 µM,0.157 µM,0.294 µM
CCC(=O)OC1=CN2C(=NC(c3ccc(N)cc3)=CC2c2cc(OC)c(OC)c(OC)c2)S1 (configuration not stated),3.22 µM,26 µM,2.41 µM,9.13 µM,2.31 µM,6.63 µM,4.39 µM,21.3 µM,2.61 µM,8.52 µM,3.49 µM,12.6 µM,6.04 µM,42.9 µM,5.54 µM,18.3 µM,4 µM,16.1 µM,3.15 µM,13.6 µM
O=C(Nc1ccc(-c2ccnc(Nc3ccc(N4CCOCC4)cc3)n2)cc1)C1CCCN1 (configuration not stated),5.66 µM,35.3 µM,2.36 µM,39.9 µM,5.16 µM,25.8 µM,7.77 µM,23.1 µM,1.6 µM,16.4 µM,6.23 µM,21.1 µM,1.79 µM,31.9 µM,8.95 µM,22.3 µM,9.35 µM,33.6 µM,4.06 µM,24.2 µM
CC(C)(O)CCC(O)C(C)(O)C1CCC2(O)C3=CC(=O)C4(O)CC(O)C(O)CC4(C)C3CCC12C (configuration not stated) (tested in a mixture with another compound),,> 100 µM,,> 100 µM,,> 100 µM,,> 100 µM,,> 100 µM,,> 100 µM,,> 100 µM,,> 100 µM,,> 100 µM,,> 100 µM
COc1ccc(S(=O)(=O)n2c3ccccc3n3ncc(-c4nnc(C)o4)c23)cc1,0.768 µM,> 100 µM,0.431 µM,> 100 µM,0.634 µM,> 67.1 µM,1.86 µM,39.6 µM,0.425 µM,> 48.3 µM,0.42 µM,> 73.6 µM,0.478 µM,> 100 µM,11.3 µM,34.8 µM,25.4 µM,> 100 µM,0.474 µM,21.7 µM
O=C(O)c1ccc2cccnc2c1O,0.747 µM,25.8 µM,0.989 µM,> 60.8 µM,1.38 µM,25.8 µM,,> 100 µM,0.551 µM,11.1 µM,0.948 µM,13.3 µM,,> 100 µM,3.69 µM,> 100 µM,1.85 µM,> 100 µM,1.14 µM,8.65 µM
S=c1[nH]nc(SCc2ccccc2Cl)c2[nH]cnc12,,> 100 µM,,> 100 µM,,> 100 µM,,> 100 µM,,> 100 µM,,> 100 µM,,> 100 µM,,> 100 µM,,> 100 µM,,> 100 µM
CC(C)=CCC/C(C)=C/[C@H]1OC(=O)CC12C[C@H](O)C=CC2=O (some centres not stated),2.08 µM,15.8 µM,0.171 µM,0.521 µM,1.65 µM,,1.55 µM,3.29 µM,0.692 µM,2.21 µM,1.19 µM,,0.384 µM,1.42 µM,2.23 µM,5.09 µM,1.31 µM,2.93 µM,1.96 µM,
C[C@H]1CCC/C=C/[C@@H]2C[C@H](O)C[C@H]2[C@H](O)[C@@H](SC2OC(CO)C(O)C(O)C2O)CC(=O)O1 (some centres not stated),> 100 µM,> 100 µM,61.2 µM,> 100 µM,> 100 µM,> 100 µM,26.9 µM,91 µM,,,> 100 µM,> 100 µM,> 100 µM,> 100 µM,74.3 µM,> 100 µM,> 100 µM,> 100 µM,47.9 µM,> 100 µM
Cc1nc2sc(C(=O)Nc3cccc(Cl)c3C)c(N)c2cc1C(C)O (configuration not stated),0.246 µM,> 61.8 µM,0.115 µM,> 54.7 µM,0.414 µM,> 69.6 µM,0.547 µM,46.5 µM,0.237 µM,> 37.2 µM,0.112 µM,5.96 µM,0.286 µM,> 100 µM,5.8 µM,> 55.6 µM,,,0.61 µM,29.2 µM
Cn1c(O)c(N=NC(N)=S)c2ccccc21,62.6 µM,> 100 µM,62.1 µM,> 100 µM,,,> 100 µM,> 100 µM,33.9 µM,> 100 µM,43.9 µM,> 100 µM,79.9 µM,> 100 µM,> 100 µM,> 100 µM,> 100 µM,> 100 µM,,
CN1N=Nc2c(C(F)(F)F)nn(-c3ccccc3)c2N(C)C1=O,> 100 µM,> 100 µM,,,> 100 µM,> 100 µM,> 100 µM,> 100 µM,> 100 µM,> 100 µM,> 100 µM,> 100 µM,> 100 µM,> 100 µM,> 100 µM,> 100 µM,> 100 µM,> 100 µM,> 100 µM,> 100 µM
CC1(C)N=C(N)N=C(N)N1c1ccc(OCCCCNC(=O)c2ccc(S(=O)(=O)F)cc2)c(Cl)c1,4.17 µM,> 100 µM,5.65 µM,> 100 µM,4.78 µM,> 100 µM,66.2 µM,> 100 µM,2.1 µM,> 100 µM,10.5 µM,> 100 µM,0.743 µM,> 100 µM,54.1 µM,> 100 µM,,,48.8 µM,> 100 µM
N#Cc1ccc2c(c1)C(=O)c1c-2n(CCCN=[N+]=[N-])c(=O)c2cc([N+](=O)[O-])ccc12,,,1.82 µM,> 50 µM,12.4 µM,> 50 µM,> 50 µM,> 50 µM,1.11 µM,> 50 µM,37.4 µM,> 50 µM,> 50 µM,> 50 µM,> 50 µM,> 50 µM,> 50 µM,> 50 µM,13.1 µM,> 50 µM
